Where two headings read alike, the source gives them in different places.
Experiments:
VCaP cells = assay: Cellular growth inhibition assay for VCaP cells (CellTiter-Glo, 72 hours); type: cell-based, human
How it was run: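 Luminescent viability signal after 72 h of compound exposure gave GI50 values by four-parameter nonlinear regression. Compounds were added in 0.5% DMSO to cells plated 24 h earlier at 5000/well in DMEM containing 10% FBS.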

[1] = tested on: T-Rex 293 cell line SC3 cells having increased expression of androgen receptor protein due to exposure to doxycycline; assay: Cellular growth inhibition assay, T-Rex 293 SC3 cells with doxycycline (CellTiter-Glo, 72 hours); type: cell-based; conditions: T-Rex 293 SC3 cells with increased androgen receptor expression due to doxycycline (10 ng/mL)
How it was run: (§1)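 Growth inhibition is measured in an inducible AR-expressing T-Rex 293 clone, SC3, cultured with or without 10 ng/mL doxycycline in hormone-depleted medium. Test compounds are applied for 72 hours. GI50 values derive from CellTiter-Glo 2.0 signal fitted by four-parameter regression.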

[2] = tested on: T-Rex 293 cell line SC3 cells lacking increased expression of androgen receptor protein; assay: Cellular growth inhibition assay, T-Rex 293 SC3 cells without doxycycline (CellTiter-Glo, 72 hours); type: cell-based; conditions: T-Rex 293 cell line SC3 cells not exposed to doxycycline (lacking increased androgen receptor expression)
How it was run: as §1

Structure (SMILES)	GI50 (VCaP cells; Homo sapiens, VCaP, 72 h) [µM]	GI50 (VCaP cells) [µM]	GI50 ([1]; 72 h) [µM]	GI50 ([2]; 72 h) [µM]	GI50 [1] [µM]	GI50 [2] [µM]
Cc1sc2c(c1C)C(c1ccc(OC3CC(CC4CCN(c5ccc(C(=O)N[C@H]6CC[C@H](Oc7ccc(C#N)c(Cl)c7)CC6)nn5)CC4)C3)cc1)=NC1(CC1)c1nnc(C)n1-2 (stereo partly drawn) [I-529]	–	< 0.5	–	–	< 0.5	> 3
Cc1sc2c(c1C)C(c1ccc(CC3CC4(CCN(c5ccc(C(=O)N[C@H]6CC[C@H](Oc7ccc(C#N)c(Cl)c7)CC6)nn5)CC4)C3)cc1)=NC1(CC1)c1nnc(C)n1-2 [I-444]	< 0.5	–	< 0.5	> 3	–	–
Cc1sc2c(c1C)C(c1ccc(OC3CCC4(C3)CN(c3ccc(C(=O)N[C@H]5CC[C@H](Oc6ccc(C#N)c(Cl)c6)CC5)nn3)CCO4)cc1)=N[C@@H](C)c1nnc(C)n1-2 (stereo partly drawn) [I-539]	–	0.5 to 1.5	< 0.5	–	–	> 3
Cc1sc2c(c1C)C(c1ccc(N3CC(CC4CCCN(c5ccc(C(=O)N[C@H]6CC[C@H](Oc7ccc(C#N)c(Cl)c7)CC6)nn5)C4)C3)cc1)=NC1(CC1)c1nnc(C)n1-2 (stereo partly drawn) [I-598]	–	< 0.5	< 0.5	–	–	< 0.5
Cc1sc2c(c1C)C(c1ccc(N3CCC4(CC3)CCN(c3ccc(C(=O)N[C@H]5CC[C@H](Oc6ccc(C#N)c(Cl)c6)CC5)nn3)C4)nc1)=NC1(CC1)c1nnc(C)n1-2 [I-477]	1.5 to 3	–	< 0.5	0.5 to 1.5	–	–
Cc1sc2c(c1C)C(c1ccc(CC3CCC4(CCCN(c5ccc(C(=O)N[C@H]6CC[C@H](Oc7ccc(C#N)c(Cl)c7)CC6)nn5)C4)C3)cc1)=N[C@@H](C)c1nnc(C)n1-2 (stereo partly drawn) [I-582]	> 3	–	< 0.5	–	–	< 0.5
Cc1sc2c(c1C)C(c1ccc(OC3CN(C(C)(C)C4CCN(c5ccc(C(=O)N[C@H]6CC[C@H](Oc7ccc(C#N)c(Cl)c7)CC6)nn5)CC4)C3)cc1)=N[C@@H](C)c1nnc(C)n1-2 [I-587]	1.5 to 3	–	< 0.5	< 0.5	–	–
Cc1sc2c(c1C)C(c1ccc(N3C[C@@H]4CN(c5ccc(C(=O)N[C@H]6CC[C@H](Oc7ccc(C#N)c(Cl)c7)CC6)nn5)C[C@@H]4C3)cc1)=N[C@@H](C)c1nnc(C)n1-2 [I-511]	< 0.5	–	< 0.5	< 0.5	–	–
CCNC(=O)C[C@@H]1N=C(c2ccc(CCCCCCOC3CCN(c4ccc(C(=O)N[C@H]5CC[C@H](Oc6ccc(C#N)c(Cl)c6)CC5)nn4)CC3)cc2)c2c(sc(C)c2C)-n2c(C)nnc21 [I-22]	0.5 to 1.5	–	< 0.5	0.5 to 1.5	–	–
Cc1sc2c(c1C)C(c1ccc(OC3CCC4(C3)CN(c3ccc(C(=O)N[C@H]5CC[C@H](Oc6ccc(C#N)c(Cl)c6)CC5)nn3)CCO4)cc1)=NC1(CC1)c1nnc(C)n1-2 (stereo partly drawn) [I-507]	–	> 3	–	–	< 0.5	> 3
CCNC(=O)C[C@@H]1N=C(c2ccc(N3CC(OC4CCN(c5ccc(C(=O)N[C@H]6CC[C@H](Oc7ccc(C#N)c(Cl)c7)CC6)nn5)CC4)C3)cc2)c2c(sc(C)c2C)-n2c(C)nnc21 [I-57]	< 0.5	–	< 0.5	< 0.5	–	–
Cc1sc2c(c1C)C(c1ccc(C#CC3CC4(CCCN(c5ccc(C(=O)N[C@H]6CC[C@H](Oc7ccc(C#N)c(Cl)c7)CC6)nn5)C4)C3)cn1)=NC(C)c1nnc(C)n1-2 (stereo partly drawn) [I-481]	–	< 0.5	< 0.5	–	–	< 0.5
Cc1sc2c(c1C)C(c1ccc(N3CCC(Cc4ccc(C(=O)N[C@H]5CC[C@H](Oc6ccc(C#N)c(Cl)c6)CC5)nn4)CC3)cc1)=N[C@@H](C)c1nnc(C)n1-2 [I-606]	> 3	–	< 0.5	> 3	–	–
Cc1sc2c(c1C)C(c1ccc(N3CCC(CC4CCN(c5ccc(C(=O)N[C@H]6CC[C@H](Oc7ccc(C#N)c(Cl)c7)CC6)nn5)CC4)CC3)cc1)=N[C@@H](C)c1nnc(C)n1-2 [I-500]	> 3	–	< 0.5	> 3	–	–
Cc1sc2c(c1C)C(c1ccc(N3CCC(CN4CCN(c5ccc(C(=O)N[C@H]6CC[C@H](Oc7ccc(C#N)c(Cl)c7)CC6)nn5)CC4)CC3)cc1)=N[C@@H](C)c1nnc(C)n1-2 [I-499]	< 0.5	–	< 0.5	> 3	–	–
CCNC(=O)C[C@@H]1N=C(c2ccc(N3CC(CC4CN(c5ccc(C(=O)N[C@H]6CC[C@H](Oc7ccc(C#N)c(Cl)c7)CC6)nn5)C4)C3)cc2)c2c(sc(C)c2C)-n2c(C)nnc21 [I-66]	< 0.5	–	< 0.5	0.5 to 1.5	–	–
COC[C@@H]1N=C(c2ccc(N3CCC4(CCN(c5ccc(C(=O)N[C@H]6CC[C@H](Oc7ccc(C#N)c(Cl)c7)CC6)nn5)CC4)C3)cc2)c2c(sc(C)c2C)-n2c(C)nnc21 [I-615]	< 0.5	–	< 0.5	< 0.5	–	–

Now from value to compound, other results behind:

GI50 (VCaP cells; Homo sapiens, VCaP, 72 h) [µM]	GI50 (VCaP cells) [µM]	Structure (SMILES)	GI50 ([1]; 72 h) [µM]	GI50 ([2]; 72 h) [µM]	GI50 [1] [µM]	GI50 [2] [µM]
> 3	–	Cc1sc2c(c1C)C(c1ccccc1OCCC1CCN(c3ccc(C(=O)N[C@H]4CC[C@H](Oc5ccc(C#N)c(Cl)c5)CC4)nn3)CC1)=N[C@@H](C)c1nnc(C)n1-2 [I-689]	> 3	> 3	–	–
–	1.5 to 3	Cc1sc2c(c1C)C(c1ccccc1OCC1CCN(c3ccc(C(=O)N[C@H]4CC[C@H](Oc5ccc(C#N)c(Cl)c5)CC4)nn3)CC1)=N[C@@H](C)c1nnc(C)n1-2 [I-650]	–	–	< 0.5	> 3
< 0.5	–	Cc1sc2c(c1C)C(c1ccc(NC[C@H]3CC[C@H](CNc4ncc(C(=O)N[C@H]5CC[C@H](Oc6ccc(C#N)c(Cl)c6)CC5)cn4)CC3)cc1)=NC(Cc1ncco1)c1nnc(C)n1-2 (stereo partly drawn) [I-807]	< 0.5	< 0.5	–	–
–	< 0.5	COCC[C@@H]1N=C(c2ccc(OC3CC4(CCCN(c5ccc(C(=O)N[C@H]6CC[C@H](Oc7ccc(C#N)c(Cl)c7)CC6)nn5)C4)C3)cc2)c2c(sc(C)c2C)-n2c(C)nnc21 (stereo partly drawn) [I-663]	–	–	< 0.5	< 0.5
–	< 0.5	Cc1sc2c(c1C)C(c1ccc(C#CC3CC4(C3)CN(c3ccc(C(=O)N[C@H]5CC[C@H](Oc6ccc(C#N)c(Cl)c6)CC5)nn3)C4)cc1)=NC(C(F)(F)F)c1nnc(C)n1-2 (stereo partly drawn) [I-741]	–	> 3	< 0.5	–
–	< 0.5	Cc1sc2c(c1C)C(c1ccc(NCC3CCN(c4ncc(C(=O)N[C@H]5CC[C@H](Oc6ccc(C#N)c(Cl)c6)CC5)cn4)C3)cc1)=NC(Cc1ncco1)c1nnc(C)n1-2 (mixture of isomers) [I-788]	–	–	< 0.5	< 0.5
0.5 to 1.5	–	Cc1sc2c(c1C)C(c1ccc(N3C[C@@]4(C)CN(c5ccc(C(=O)N[C@H]6CC[C@H](Oc7ccc(C#N)c(Cl)c7)CC6)nn5)C[C@@]4(C)C3)cc1)=N[C@@H](C)c1nnc(C)n1-2 [I-704]	< 0.5	> 3	–	–
< 0.5	–	CC[C@@H]1N=C(c2ccc(OC3(C)CC4(CN(c5ccc(C(=O)N[C@H]6CC[C@H](Oc7ccc(C#N)c(Cl)c7)CC6)nn5)C4)C3)cc2)c2c(sc(C)c2C)-n2c(C)nnc21 [I-632]	< 0.5	< 0.5	–	–
–	< 0.5	Cc1sc2c(c1C)C(c1ccc(OCC3CCC4(CCCN(c5ccc(C(=O)N[C@H]6CC[C@H](Oc7ccc(C#N)c(Cl)c7)CC6)nn5)C4)C3)cc1)=N[C@@H](C)c1nnc(C)n1-2 (stereo partly drawn) [I-627]	–	–	< 0.5	< 0.5
–	< 0.5	Cc1sc2c(c1C)C(c1ccc(OC3CCC4(CCN(c5ccc(C(=O)N[C@H]6CC[C@H](Oc7ccc(C#N)c(Cl)c7)CC6)nn5)C4)C3)cc1)=N[C@@H](C)c1nnc(C)n1-2 (stereo partly drawn) [I-734]	–	–	< 0.5	< 0.5
–	1.5 to 3	Cc1sc2c(c1C)C(c1ccc(C3CCC4(CC3)CCN(c3ccc(C(=O)N[C@H]5CC[C@H](Oc6ccc(C#N)c(Cl)c6)CC5)nn3)CC4)nc1)=N[C@@H](C)c1nnc(C)n1-2 [I-630]	< 0.5	< 0.5	–	–
–	< 0.5	Cc1sc2c(c1C)C(c1ccc(CC3CC4(CCCN(c5ccc(C(=O)N[C@H]6CC[C@H](Oc7ccc(C#N)c(Cl)c7)CC6)nn5)C4)C3)cn1)=NC(Cc1ncco1)c1nnc(C)n1-2 (stereo partly drawn) [I-769]	–	–	> 3	> 3
< 0.5	–	Cc1sc2c(c1C)C(c1cccc(OCC3CCN(c4ccc(C(=O)N[C@H]5CC[C@H](Oc6ccc(C#N)c(Cl)c6)CC5)nn4)CC3)c1)=N[C@@H](C)c1nnc(C)n1-2 [I-681]	> 3	> 3	–	–
–	< 0.5	Cc1sc2c(c1C)C(c1cccc(N3CCC4(CCN(c5ccc(C(=O)N[C@H]6CC[C@H](Oc7ccc(C#N)c(Cl)c7)CC6)nn5)C4)C3)c1)=N[C@@H](C)c1nnc(C)n1-2 (stereo partly drawn) [I-708]	–	–	< 0.5	1.5 to 3
< 0.5	–	Cc1sc2c(c1C)C(c1ccc(C3CCC4(CCN(c5ccc(C(=O)N[C@H]6CC[C@H](Oc7ccc(C#N)c(Cl)c7)CC6)nn5)CC4)C3)cc1)=NC(C(F)(F)F)c1nnc(C)n1-2 (stereo partly drawn) [I-759]	–	> 3	> 3	–
< 0.5	–	Cc1sc2c(c1C)C(c1ccc(N3C[C@@H]4CN(c5ccc(C(=O)N[C@H]6CC[C@H](Oc7ccc(C#N)c(Cl)c7)CC6)nn5)C[C@H]4C3)cc1)=NC1(CC1)c1nnc(C)n1-2 [I-664]	< 0.5	< 0.5	–	–
< 0.5	–	Cc1sc2c(c1C)C(c1ccc(C#CC3CC(Cc4ccc(C(=O)N[C@H]5CC[C@H](Oc6ccc(C#N)c(Cl)c6)CC5)nn4)C3)cc1)=N[C@@H](Cc1ncco1)c1nnc(C)n1-2 (stereo partly drawn) [I-645]	< 0.5	–	–	> 3
< 0.5	–	Cc1sc2c(c1C)C(c1ccccc1OC1CC3(CCN(c4ccc(C(=O)N[C@H]5CC[C@H](Oc6ccc(C#N)c(Cl)c6)CC5)nn4)CC3)C1)=N[C@@H](C)c1nnc(C)n1-2 [I-651]	> 3	> 3	–	–

— patent publication US20260109707A1, “HETEROBIFUNCTIONAL COMPOUNDS AND METHODS OF TREATING DISEASE” (Halda Therapeutics OpCo. Inc., priority 2022, published 2026)
